# Several values for one entry are separate records, joined by “and”; a condition that tells them apart may be missing. Equal entries are not always repeated.
# Key:
# [1] = system: WM 266-4 (cutaneous melanoma); experiment: Proliferation assay (CellTiter 96), WM266-4 cells; format: cell-based, human
# Method: (§1) The cells were cultured in triplicate with or without 2 μM camptothecin (CPT) or 10 mM cis-UCA in a density of 15,000 cells per […]. A, Cells taken from normal pH 7.4 cultures to test conditions at pH 6.5. B, Cells cultured in low pH 6.7 adaptation medium for 3 d, then tested at pH 6.5. C, Cells cultured and tested at pH 7.4.
# (§2) Transformed tumour cell lines WM 266-4 and A2058 (cutaneous melanoma), HT-1080 (epithelial fibrosarcoma), HeLa (epithelial adenocarcinoma of cervix), HK293 (kidney epithelial cells) and non-transformed cell line HSF (skin fibroblast from a healthy volunteer donor) of human origin have been described earlier (Li et al. 2003). The K562 (chronic myelogenous leukemia) cells were purchased from American Type Culture Collection.
# (§3) The cells were maintained in logarithmic growth phase in IMDM medium (Invitrogen, Paisley, UK) supplemented with 10% fetal calf serum and antibiotics in a humidified incubator at +37° C., 5% CO2. The adherent cells lines were harvested for experiments with 0.25% trypsin-EDTA in PBS for 5 min and then resuspended and washed in medium. After counting of viable cells, 15,000 to 75,000 cells were transferred into flat-bottom 96-well cell culture plates in a volume of 100 or 150 μl.
# (§4) The proliferation activity of cultured cell lines was quantified in flat-bottom 96-well plates with a modified colorimetric assay based on a tetrazolium derivative (CellTiter 96 Aqueous One Solution Cell Proliferation Assay, Promega). The cells were cultured in the presence of camptothecin and/or cis-UCA for 20 to 92 h, then the proliferation reagent was added for 2 h, and the absorbance at 490 nm was measured in a plate reader. Blank absorption values in wells containing medium without cells were subtracted before comparison analysis.
# (§5) The cell lines were tested in a 44-h culture at pH 6.5 with or without 2 μM camptothecin and 10 mM cis-UCA at 15,000 cells per 100 μl total volume. […] In order to further characterise the effective anti-proliferative concentration range of cis-UCA, proliferation was measured in a 44-h assay at pH 6.5 with cis-UCA concentration ranging from 30 μM to 30 mM.
# [2] = system: HK293 (kidney epithelial cells); experiment: Proliferation assay (CellTiter 96), HK293 cells; format: cell-based, human; settings: pH 6.5, 44 h, cis-UCA 10 mM, CPT 2 μM, 15,000 cells per 100 μl
# Source text: as §2, §3
# as §4, with “Blank absorption values in wells containing medium without cells were subtracted before comparison analysis.” left out
# [3] = system: A2058 tumours; experiment: Haematoxylin/eosin staining of tumour sections (necrosis); format: in vivo, SCID/SCID mice; settings: tumours collected after 16 days; 30 mM cis-UCA, 1 μM CPT intratumoural
# Source text: (§6) After 16 days from the first injection, all the animals were sacrificed with CO2, and the tumours were collected and fixed in formalin for further studies. In groups A, C, and D, one mouse was sacrificed before the end of the experiment because of poor development of the tumour (no measurable tumour at day 0). One animal in group B was sacrificed prematurely after it had severly scratched the tumour. Data from these animals were not included in the calculation of the tumour size results. All the removed animals were female mice. Immunohistochemical data was obtained also from the removed mice except from group B. The experiments were conducted under a protocol approved by the local ethics committee.
# (§7) Paraffin sections of the tumours were stained with haematoxylin/eosin following standard procedures for an overall picture. Ki67 was stained to detect the amount of proliferating cells. The staining procedure for the Ki67 primary antibody (Dako, Klostrup, Denmark) at 1:50 dilution and secondary antibody (StreptABComplex/HRP Duet Mouse/Rabbit, Dako) at 1:100 dilution followed the instructions provided by the manufacturer. Two sections from each tumour was examined.
# [4] = system: A2058 (cutaneous melanoma); experiment: Proliferation assay (CellTiter 96), A2058 cells; format: cell-based, human
# Method: as §1
# Proliferation was measured in a 44-h assay at pH 6.5 with 30 μM to 30 mM cis-UCA and 2 μM camptothecin. Both proliferation (A) and calculated percentage inhibition data (B) are presented.
# as §2, §3, §4, §5
# [5] = system: HeLa (epithelial adenocarcinoma of cervix); experiment: Proliferation assay (CellTiter 96), HeLa cells; format: cell-based, human; settings: pH 6.5, 44 h, cis-UCA 10 mM, CPT 2 μM, 15,000 cells per 100 μl
# Source text: as §2, §3
# as §4, with “Blank absorption values in wells containing medium without cells were subtracted before comparison analysis.” left out
# [6] = system: cell lines; experiment: Proliferation assay, statements on the cell lines as a group; format: cell-based, human; settings: all three studied transformed cell lines; 44 h; pH 6.5 (FIG. 4)
# Method: The cells were cultured for 44 h with or without 2 μM camptothecin (CPT) at pH 6.5 or 7.4 conditions. After a 2-h incubation with the proliferation assay reagent, the absorbance at 490 nm was recorded. Cells were cultured in a density of 15,000 cells (K562, HT-1080, HK293) or 75,000 cells (the other cells) in a volume of 150 μl.
# Three cell lines were cultured with cis-UCA and/or 1 μM camptothecin at a density of […] per well (100 μl) for 44 h in pH 6.5 medium. Blank wells with all the cis-UCA concentrations but without cells were included and their absorbance subtracted from those of the corresponding test wells.
# as §2, with “The K562 (chronic myelogenous leukemia) cells were purchased from American Type Culture Collection.” left out
# as §4, with “Blank absorption values in wells containing medium without cells were subtracted before comparison analysis.” left out
# [7] = cited from earlier work
# [8] = system: A2058 human cutaneous melanoma tumours; experiment: Tumour growth in SCID/SCID mice in vivo; settings: 16-day treatment, intratumoural 30 mM cis-UCA, 1 μM CPT, pH 6.5
# Method: All injection solutions were adjusted to pH 6.5. The data points have been normalised to unity tumour size at day 0. Data from five mice in each group is included (mean, SD).
# The A2058 human cutaneous melanoma cells were cultured under normal cell culture conditions prior to injection into mice. Two million A2058 cells were injected s.c. into the neck of SCID/SCID mice (Charles River Laboratories, Germany). Tumours were allowed to develop for two weeks to the size of a small pearl before the treatments. The mice were divided into four groups of six animals, each containing three males and three females. Each tumour was first injected 50 μl of one of the test solutions (A: PBS; B: 30 mM cis-UCA; C: 1 μM CPT; D: 30 mM cis-UCA+1 μM CPT) three times a week (Mon-Wed-Fri). After day 7 from the beginning of injections, the injection volume was increased to 150 μl injected into three different sides of the tumour. Tumour length and width were measured with a caliper three times a week before each injection. Tumour planar area was calculated as length×width. The tumour growth inhibition efficiency I of the treatments was calculated according to Equation 1:
# [formula] where Sr represents the normalised relative size of the tumour in the control group (A) or any of the treatment groups (T), and d0 to d16 are the (eight) measuring time points during the 16-day treatment period.
# as §6
# [9] = system: Ki67 (proliferating cells) in A2058 tumours; experiment: Immunohistochemistry of tumours, Ki67 staining; format: in vivo, SCID/SCID mice; settings: tumours collected after 16 days; 30 mM cis-UCA, 1 μM CPT intratumoural
# Source text: as §6, §7
# [10] = 10 mM cis-UCA alone, cells from pH 7.4 cultures tested at pH 6.5, 92 h (FIG. 2A)
# [11] = 10 mM cis-UCA, cells adapted to pH 6.7 for 3 days, tested at pH 6.5, 92 h (FIG. 2B)
# [12] = pH 6.5, 44 h, cis-UCA 10 mM, CPT 2 μM, 15,000 cells per 100 μl
compound,measurement,setting,value
"O=C(O)/C=C\c1c[nH]cn1 [cis-UCA, cis-urocanic acid]",percentage inhibition of proliferation,[1]; [10],36%
same,percentage inhibition of proliferation,[1]; [11],28%
same,Inhibition of proliferation (mean percentage inhibition ± SD compared with untreated control),[1]; [12],20 ± 0.6%
same,Inhibition of proliferation (mean percentage inhibition ± SD compared with untreated control),[2],22 ± 0.1%
same,Necrosis (histological sections with haematoxylin/eosin staining),[3],Dead cells and large necrotic areas were detected and yes
same,percentage inhibition of proliferation,[4]; [10],83%
same,percentage inhibition of proliferation,[4]; [11],87%
same,concentration required to produce measurable inhibition of proliferation,"[4]; 44-h assay at pH 6.5, 30 μM to 30 mM tested (FIG. 3)",at least 3 mM
same,Inhibition of proliferation (mean percentage inhibition ± SD compared with untreated control),[4]; [12],45 ± 4.4%
same,Inhibition of proliferation (mean percentage inhibition ± SD compared with untreated control),[5],50 ± 1.7%
same,concentration at which proliferation was inhibited,[6],≥ 3 mM
same,second pKa (imidazolyl group),"[7]; Roberts et al. 1982, Krien & Kermici 2000",7.0
same,first pKa (carboxyl group),[7]; Roberts et al. 1982,3.3
same,"Growth suppression, female",[8]; female mice,72.0%
same,"Growth suppression, male",[8]; male mice,55.9%
same,Ki67+ (number of positive tumours/total analysed),[9],none of the analysed five tumours and 0/5

# — patent publication US8338475B2, “Anti-proliferative pharmaceutical composition” (BioCis Pharma Oy, priority 2003, dated 2012)
